From patent publication US12552796B2, “EED inhibitor, and preparation method therefor and use thereof” (SHANGHAITECH UNIVERSITY, priority 2019, dated 2026) come the findings set out here.

pIC50: −log10 of the molar value.

One experiment concerns cellular H3K27 methylation. The experiment in a line: Cellular H3K27 methylation assay (Western blot of H3K27me3 in HeLa cells). Type of experiment: cell-based. The settings on record: Homo sapiens, 72 h; HeLa cells, 3 days, H3K27me3 level by Western blot; read-out: PD IC50.
For `Fc1ccc2c(c1CNc1nccc3nncn13)CCO2` [HJM-001], the pIC50 is 6.32.
Regarding `Fc1ccc2c(c1CNc1ncc(C3CC3)c3nncn13)CCO2` [HJM-002], the pIC50 was 7.01.
With `Fc1ccc2c(c1CNc1ncc(C3CCCCO3)c3nncn13)CCO2` (stereo not drawn) [HJM-004, N-((5-fluoro-2,3-dihydrobenzofuran-4-yl)methyl)-8-(tetrahydro-2H-pyran-2-yl)-[1,2,4]triazolo[4,3-c]pyrimidin-5-amine], the negative-log IC50 (pIC50) is 6.85.
The same measure, in the same setting: then `Cc1ncccc1CCc1cnc(NCc2c(F)ccc3c2CCO3)n2cnnc12` [HJM-005], with 6.34; and `Fc1ccc2c(c1CNc1ncc(/C=C/CN3CCCCC3)c3nncn13)CCO2` [HJM-006], with 7.31; and `Fc1ccc2c(c1CNc1ncc(/C=C/CN3CCOCC3)c3nncn13)CCO2` [HJM-007], with 7.30.
Regarding `Fc1ccc2c(c1CNc1ncc(CCCN3CCCCC3)c3nncn13)CCO2` [HJM-008], the negative logarithm of the IC50 (pIC50) was 6.95.
Same read-out and setting: the result for `CC(c1cnc(NCc2c(F)ccc3c2CCO3)n2cnnc12)N1CCCCC1` (stereo not drawn) [HJM-009] reads 6.25.
The same measure, in the same setting: then `COCCC(COC)c1cnc(NCc2c(F)ccc3c2CCO3)n2cnnc12` (stereo not drawn) [HJM-012], with 6.95; and `Fc1ccc2c(c1CNc1ncc(OCCN3CCOCC3)c3nncn13)CCO2` [HJM-013], with 6.65; and `COc1cnc(NCc2c(F)ccc3c2CCO3)n2cnnc12` [HJM-014], with 7.36.
On the same count and under the same terms, the result for `Fc1ccc2c(c1CNc1ncc(OC3CCOC3)c3nncn13)CCO2` (stereo not drawn) [HJM-018] reads 7.23; that for `Cc1ncccc1COc1cnc(NCc2c(F)ccc3c2CCO3)n2cnnc12` [HJM-021], 6.62; that for `Fc1ccc2c(c1CNc1ncc(NCC3CC3)c3nncn13)CCO2` [HJM-022], 6.55.
As to `Fc1ccc2c(c1CNc1ncc(NCCN3CCOCC3)c3nncn13)CCO2` [HJM-023], the pIC50 was 5.94.
`CN(CCN1CCOCC1)c1cnc(NCc2c(F)ccc3c2CCO3)n2cnnc12` [HJM-024]: the pIC50 was 5.96.
With `CCN(CC)C(=O)c1cnc(NCc2c(F)ccc3c2CCO3)n2cnnc12` [HJM-026], the pIC50 is 7.12.
On the same count and under the same terms, the result for `O=C(c1cnc(NCc2c(F)ccc3c2CCO3)n2cnnc12)N1CCCCC1` [HJM-028] reads 7.02; that for `O=C(NC1CC1)c1cnc(NCc2c(F)ccc3c2CCO3)n2cnnc12` [HJM-029], 7.09.
The same measure, in the same setting: the result for `O=C(CN1CCOCC1)Nc1cnc(NCc2c(F)ccc3c2CCO3)n2cnnc12` [HJM-032] reads 6.50.
Consider `COCCC(=O)Nc1cnc(NCc2c(F)ccc3c2CCO3)n2cnnc12` [HJM-034], for which the pIC50 was 7.00.
Turning to `O=C(Nc1cnc(NCc2c(F)ccc3c2CCO3)n2cnnc12)C1CCC1` [HJM-035], the pIC50 was 7.27.
`O=C(Nc1cnc(NCc2c(F)ccc3c2CCO3)n2cnnc12)C1CCCC1` [HJM-036]: the pIC50 was 6.79.
On the same count and under the same terms, then `O=C(Nc1cnc(NCc2c(F)ccc3c2CCO3)n2cnnc12)C1CCOC1` (stereo not drawn) [HJM-038], with 6.73; and `O=C(Nc1cnc(NCc2c(F)ccc3c2CCO3)n2cnnc12)C1CCCCO1` (stereo not drawn) [HJM-039], with 7.17; and `O=C(Nc1cnc(NCc2c(F)ccc3c2CCO3)n2cnnc12)C1CCCOC1` (stereo not drawn) [HJM-040], with 6.76.
With `O=C(Nc1cnc(NCc2c(F)ccc3c2CCO3)n2cnnc12)C1CCOCC1` [HJM-041], the pIC50 was 6.48.
Regarding `O=C(Nc1cnc(NCc2c(F)ccc3c2CCO3)n2cnnc12)c1ccncc1` [HJM-044], the pIC50 was 6.54.
The same measure, in the same setting: then `COc1cccc(F)c1CNc1ncc(/C=C/c2cccnc2C)c2nncn12` [HJM-046], with 5.70.
In the case of `COc1cccc(F)c1CNc1ncc(CCc2cccnc2C)c2nncn12` [HJM-047], the negative logarithm of the IC50 (pIC50) was 5.15.
For `COc1cccc(F)c1CNc1ncc(Oc2cccnc2C)c2nncn12` [HJM-048], the pIC50 is 5.79.
The same measure, in the same setting: the result for `COc1cccc(F)c1CNc1ncc(/C=C/CN2CCCCC2)c2nncn12` [HJM-049] reads 6.53; that for `CS(=O)(=O)N1CCC(c2cnc(NCc3c(F)ccc4c3CCO4)n3cnnc23)C1` (stereo not drawn) [HJM-050], 7.30.
`Fc1ccc2c(c1CNc1ncc(C3CCCCC3)c3nncn13)CCO2` [HJM-051]: the pIC50 was 6.78.
On the same count and under the same terms, the result for `CN1CCCC(c2cnc(NCc3c(F)ccc4c3CCO4)n3cnnc23)C1` (stereo not drawn) [HJM-053] reads 7.54; that for `Fc1ccc2c(c1CNc1ncc(C3CCOC3)c3nncn13)CCO2` (stereo not drawn) [HJM-054], 7.51; that for `O=C(N1CCC(c2cnc(NCc3c(F)ccc4c3CCO4)n3cnnc23)CC1)C(F)(F)F` [HJM-056], 7.89.
`Fc1ccc2c(c1CNc1ncc(C3CCN(CC(F)(F)F)CC3)c3nncn13)CCO2` [HJM-057]: the pIC50 is 7.39.
Take `OCCN1CCC(c2cnc(NCc3c(F)ccc4c3CCO4)n3cnnc23)CC1` [HJM-058]: the pIC50 is 6.88.
On the same count and under the same terms, the result for `Fc1ccc2c(c1CNc1ncc(C3CCN(C4CC4)CC3)c3nncn13)CCO2` [HJM-059] reads 7.41; that for `Fc1ccc2c(c1CNc1ncc(C3CCN(C4COC4)CC3)c3nncn13)CCO2` [HJM-060], 6.85; that for `CC1COCCN1c1cnc(NCc2c(F)ccc3c2CCO3)n2cnnc12` (stereo not drawn) [HJM-061], 6.96.
The same measure, in the same setting: then `Fc1ccc2c(c1CNc1ncc(N3CCC(F)(F)C3)c3nncn13)CCO2` [HJM-062], with 6.35; and `COC1CCN(c2cnc(NCc3c(F)ccc4c3CCO4)n3cnnc23)C1` (stereo not drawn) [HJM-063], with 6.17.
`O=C1CCN(c2cnc(NCc3c(F)ccc4c3CCO4)n3cnnc23)CC1` [HJM-064]: the pIC50 is 6.74.
For the molecule `CS(=O)(=O)Nc1cnc(NCc2c(F)ccc3c2CCO3)n2cnnc12` [HJM-065], the pIC50 is 6.44.
Take `O=C1CCCCN1c1cnc(NCc2c(F)ccc3c2CCO3)n2cnnc12` [HJM-068]: the pIC50 was 6.86.
On the same count and under the same terms, then `CC(=O)Nc1cnc(NCc2c(F)ccc3c2CCO3)n2cnnc12` [HJM-069], with 6.41; and `CCC(=O)Nc1cnc(NCc2c(F)ccc3c2CCO3)n2cnnc12` [HJM-070], with 7.08.
As to `CC(C)C(=O)Nc1cnc(NCc2c(F)ccc3c2CCO3)n2cnnc12` [HJM-071], the pIC50 is 7.14.
Still for that read-out and setting: the result for `N#CCC(=O)Nc1cnc(NCc2c(F)ccc3c2CCO3)n2cnnc12` [HJM-074] reads 6.26; that for `O=C(CO)Nc1cnc(NCc2c(F)ccc3c2CCO3)n2cnnc12` [HJM-075], 6.16; that for `[2H]C([2H])([2H])N(C(=O)C1CC1)c1cnc(NCc2c(F)ccc3c2CCO3)n2cnnc12` [HJM-076], 8.20.
For the molecule `[2H]C([2H])(Nc1ncc(N(C)C(=O)C2CC2)c2nncn12)c1c(F)ccc2c1CCO2` [HJM-077], the pIC50 is 7.83.
Regarding `[2H]C([2H])(Nc1ncc(N(C(=O)C2CC2)C([2H])([2H])[2H])c2nncn12)c1c(F)ccc2c1CCO2` [HJM-078], the pIC50 was 7.92.
Turning to `CCCN(C(=O)C1CC1)c1cnc(NCc2c(F)ccc3c2CCO3)n2cnnc12` [HJM-080], the pIC50 is 7.46.
For `CN(C)CC(=O)Nc1cnc(NCc2c(F)ccc3c2CCO3)n2cnnc12` [HJM-081], the pIC50 is 7.11.
Turning to `COCCN(C)CC(=O)Nc1cnc(NCc2c(F)ccc3c2CCO3)n2cnnc12` [HJM-085], the pIC50 was 7.20.
As for `CN1CCOC(C(=O)Nc2cnc(NCc3c(F)ccc4c3CCO4)n3cnnc23)C1` (stereo not drawn) [HJM-086], the pIC50 was 6.73.
In the case of `CN1CC(C(=O)Nc2cnc(NCc3c(F)ccc4c3CCO4)n3cnnc23)C1` [HJM-087], the pIC50 is 6.63.
As to `COCCN1CC(C(=O)Nc2cnc(NCc3c(F)ccc4c3CCO4)n3cnnc23)C1` [HJM-088], the pIC50 is 6.22.
Still for that read-out and setting: the result for `O=C(CCc1ccccc1)Nc1cnc(NCc2c(F)ccc3c2CCO3)n2cnnc12` [HJM-089] reads 6.59; that for `COc1ccc(C(=O)Nc2cnc(NCc3c(F)ccc4c3CCO4)n3cnnc23)cc1` [HJM-090], 6.70; that for `COc1ccc(C(=O)Nc2cnc(NCc3c(F)ccc4c3CCO4)n3cnnc23)cn1` [HJM-091], 6.54.
Still for that read-out and setting: then `O=C(Nc1cnc(NCc2c(F)ccc3c2CCO3)n2cnnc12)c1ccccc1F` [HJM-092], with 6.86; and `CS(=O)(=O)c1ccc(C(=O)Nc2cnc(NCc3c(F)ccc4c3CCO4)n3cnnc23)cc1` [HJM-093], with 6.09; and `O=C(Nc1cnc(NCc2c(F)ccc3c2CCO3)n2cnnc12)c1cnco1` [HJM-094], with 6.65.
Regarding `O=C(Nc1cnc(NCc2c(F)ccc3c2CCO3)n2cnnc12)c1ncco1` [HJM-095], the pIC50 was 6.75.
On to `O=C(Nc1cnc(NCc2c(F)ccc3c2CCO3)n2cnnc12)c1ccno1` [HJM-096], for which the negative-log IC50 (pIC50) is 7.05.
As to `CN1CCN(C(=O)Nc2cnc(NCc3c(F)ccc4c3CCO4)n3cnnc23)CC1` [HJM-097], the pIC50 is 6.10.
Consider `CN(CC1CC1)C(=O)Nc1cnc(NCc2c(F)ccc3c2CCO3)n2cnnc12` [HJM-098], for which the pIC50 is 6.51.
Regarding `O=C(Nc1cnc(NCc2c(F)ccc3c2CCO3)n2cnnc12)N1CCOCC1` [HJM-099], the pIC50 was 5.80.
Take `Fc1ccc2c(c1CNc1ncc(OC3CC(F)(F)C3)c3nncn13)CCO2` [HJM-107]: the pIC50 was 7.31.
Turning to `Fc1ccc2c(c1CNc1ncc(OCC3CC3(F)F)c3nncn13)CCO2` (stereo not drawn) [HJM-108], the pIC50 is 6.90.
As for `[2H]C([2H])(Nc1ncc(OCC2COC2)c2nncn12)c1c(F)ccc2c1CCO2` [HJM-109], the pIC50 is 7.61.
For `[2H]C([2H])(Nc1ncc(OC2CCOCC2)c2nncn12)c1c(F)ccc2c1CCO2` [HJM-110], the pIC50 was 7.48.
Consider `[2H]C([2H])(Nc1ncc(OCC2CCOC2)c2nncn12)c1c(F)ccc2c1CCO2` (stereo not drawn) [HJM-111], for which the pIC50 was 7.42.
Same read-out and setting: then `[2H]C([2H])(Nc1ncc(OC([2H])([2H])C2COC2)c2nncn12)c1c(F)ccc2c1CCO2` [HJM-112], with 7.53; and `[2H]C([2H])(Oc1cnc(NCc2c(F)ccc3c2CCO3)n2cnnc12)C1COC1` [HJM-113], with 7.22.

Still in this experiment, the particulars now being: Homo sapiens, HeLa, 72 h, read-out: PD IC50.
With `O=C(Nc1cnc(NCc2c(F)ccc3c2CCO3)n2cnnc12)c1cccnc1` [HJM-043], the pIC50 was 6.94.
Still for that read-out and setting: the result for `Fc1ccc2c(c1CNc1ncc(Nc3ccccc3)c3nncn13)CCO2` [HJM-066] reads 6.64.

What is called pIC50 is −log10 of the IC50, conventionally taken in molar units.
